Test results from US10125101B2, “Indanylaminopyridylcyclopropanecarboxylic acids, pharmaceutical compositions and uses thereof” (Boehringer Ingelheim International GmbH, priority 2016, dated 2018).
≈ marks a conversion by molar mass, not a printed value. Like-named read-outs stand apart in the source and are kept apart here.

Experiments:
[1] = biological target: cytochrome P450 2C8-isoenzyme (Homo sapiens (Human), UniProt P10632); experiment: Inhibition of CYP-2C8 (amodiaquine deethylation, human liver microsomes); assay type: in vitro ADME; conditions: amodiaquine 1 μM, 37° C.
Chain of cytochrome P450 2C8-isoenzyme (P10632 whole entry): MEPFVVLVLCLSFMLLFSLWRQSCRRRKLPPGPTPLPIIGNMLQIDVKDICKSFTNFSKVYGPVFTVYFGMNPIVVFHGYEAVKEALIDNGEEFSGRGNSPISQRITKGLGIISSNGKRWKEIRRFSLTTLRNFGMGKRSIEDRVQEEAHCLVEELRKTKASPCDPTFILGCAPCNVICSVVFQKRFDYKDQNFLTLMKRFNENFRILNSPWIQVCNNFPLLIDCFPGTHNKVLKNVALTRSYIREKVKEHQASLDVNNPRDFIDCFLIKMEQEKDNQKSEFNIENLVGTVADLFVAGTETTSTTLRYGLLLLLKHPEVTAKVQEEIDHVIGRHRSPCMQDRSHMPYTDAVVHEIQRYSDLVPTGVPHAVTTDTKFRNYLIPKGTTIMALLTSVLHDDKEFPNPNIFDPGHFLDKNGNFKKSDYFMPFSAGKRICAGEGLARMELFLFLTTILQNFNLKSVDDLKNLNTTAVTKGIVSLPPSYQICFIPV
Description: (§1) All assays are carried out on a robotic system in 96 well plates. The final incubation volume contains TRIS buffer (0.1 M), MgCl2 (5 mM), human liver microsomes (0.05 mg/mL), amodiaquine (1 μM) and the test compound at five different concentrations or no compound (high control) in duplicate (e.g. highest concentration 10-50 μM with subsequent serial 1:4 dilutions). Following a short preincubation period, reactions are started with the cofactor (NADPH, 1 mM) and stopped by cooling the incubation down to 8° C. and subsequently by addition of one volume of acetonitrile. An internal standard solution—the stable isotope d5-desethylamodiaquine—is added after quenching of incubations. Peak area analyte (=metabolite formed) and internal standard is determined by LC-MS/MS. The resulting peak area ratio analyte to internal standard in these incubations is compared to a control activity containing no test compound. Within each of the assay runs, the IC50 of a positive control inhibitor (Montelukast) is determined.

[2] = biological target: cytochrome P450 2C9-isoenzyme (Homo sapiens (Human), UniProt P11712); experiment: Inhibition of CYP-2C9 (diclofenac hydroxylation, human liver microsomes); assay type: in vitro ADME; conditions: diclofenac 10 μM, 37° C.
Chain of cytochrome P450 2C9-isoenzyme (P11712 whole entry): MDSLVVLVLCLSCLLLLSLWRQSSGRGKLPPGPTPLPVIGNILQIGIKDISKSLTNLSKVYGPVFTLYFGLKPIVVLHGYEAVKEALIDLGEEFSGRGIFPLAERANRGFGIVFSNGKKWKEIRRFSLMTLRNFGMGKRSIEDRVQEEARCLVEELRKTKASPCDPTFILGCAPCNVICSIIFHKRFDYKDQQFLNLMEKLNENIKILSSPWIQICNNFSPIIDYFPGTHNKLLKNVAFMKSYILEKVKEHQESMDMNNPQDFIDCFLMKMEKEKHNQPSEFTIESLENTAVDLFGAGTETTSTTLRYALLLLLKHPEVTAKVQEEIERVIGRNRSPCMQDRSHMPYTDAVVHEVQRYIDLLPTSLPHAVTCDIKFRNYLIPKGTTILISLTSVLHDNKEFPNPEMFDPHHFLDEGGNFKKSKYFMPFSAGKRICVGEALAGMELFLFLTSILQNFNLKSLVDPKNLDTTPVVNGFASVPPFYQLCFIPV
Description: as §1, with “(0.1” for “(0.05”, “diclofenac (10” for “amodiaquine (1”, “(e.g.,” for “(e.g.”, “^13C6-hydroxydiclofenac—is” for “d5-desethylamodiaquine—is”, “(sulfaphenazole)” for “(Montelukast)”

[3] = biological target: human GPR40 receptor (Homo sapiens (Human), UniProt O14842); experiment: IP1 accumulation measurements using the IPOne assay system; assay type: cell-based
Chain of human GPR40 receptor (O14842 whole entry): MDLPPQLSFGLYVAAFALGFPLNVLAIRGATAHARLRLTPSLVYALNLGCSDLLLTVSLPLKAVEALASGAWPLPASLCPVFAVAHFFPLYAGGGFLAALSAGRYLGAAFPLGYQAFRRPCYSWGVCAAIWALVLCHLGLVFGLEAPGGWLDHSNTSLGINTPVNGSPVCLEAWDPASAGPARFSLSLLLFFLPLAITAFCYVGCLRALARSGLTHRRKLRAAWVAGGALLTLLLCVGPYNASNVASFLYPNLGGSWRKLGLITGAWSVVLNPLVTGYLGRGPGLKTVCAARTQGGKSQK
Description: IP1 accumulation measurements using the IPOne assay system—1321N1 cells stably expressing human GPR40 receptor (Euroscreen, Belgium) are seeded 24 h before the assay in white 384-well plates in culture medium containing 10% FCS, 1% Na-Pyruvate and 400 μg/mL G418. IP1 is assayed according to the manufacturer's description (Cisbio Bioassays, France). In brief, the assay is started by substitution of the culture medium by stimulation buffer (Hepes 10 mM, CaCl2 1 mM, MgCl2 0.5 mM, KCl 4.2 mM, NaCl 146 mM, glucose 5.5 mM and LiCl 50 mM, pH 7.4). Cells are stimulated for 1 h at 37° C., 5% CO2 by addition of the compounds that are diluted in stimulation buffer containing LiCl. Assays are stopped by adding HTRF-conjugates (IP1-d2 and Anti-IP1 cryptate Tb) and lysis buffer, provided by the manufacturer. After an incubation time of 1 h at room temperature plates are measured using an EnVision™, Perkin Elmer. The obtained fluorescence ratios at 665/615 […] are then used to calculate the pEC50 values using Assay Explorer 3.3 Software (Accelrys, Inc.) by interpolation using an IP1 reference curve and subsequent sigmoidal curve fitting allowing for a variable hill slope.

[4] = Aqueous solubility; assay type: physicochemical; conditions: buffer pH 2.2, 24 h shaking, 2.5% DMSO; for solubility at 24 h: aqueous buffer, kinetic from dmso stock
Description: Starting from a 10 mM DMSO stock solution aliquots are diluted with acetonitrile/water (1/1) or buffer, respectively. After 24 h of shaking, the solutions are filtrated and analyzed by LC-UV. The amount dissolved in buffer is compared to the amount in the acetonitrile solution.

[5] = 1321N1 cells stably expressing human GPR40, 1 h stimulation, read-out: EC50
[6] = head-to-head compilation, given as IC50, values equal the EC50 of Table 2, read-out: GPR40: IC50

| SMILES | IC50 [1] [µM] | IC50 [2] [µM] | EC50 [3, 5] [µM] | Solubility at pH value 2.2 [4] [μg/mL] | EC50 [3, 6] [µM] | solubility at 24 h [4] [µg/mL] |
| --- | --- | --- | --- | --- | --- | --- |
| N#CC1(c2ccccc2-c2ccc(F)c3c2CC[C@H]3Nc2ccc([C@H]3C[C@@H]3C(=O)O)nc2)CC1 (mixture of isomers) [Example 25] | 49 | 40 | 0.344 | 110 | – | – |
| Cc1cc(OCCC(C)(C)O)cc(C)c1-c1ccc(F)c2c1CC[C@H]2Nc1ccc(C2C[C@@H]2C(=O)O)nc1 (stereo partly drawn) [Example 1, trans-2-(5-{(R)-7-Fluoro-4-[4-(3-hydroxy-3-methyl-butoxy)-2,6-dimethyl-phenyl]-indan-1-ylamino}-pyridin-2-yl)-cyclopropanecarboxylic acid] | – | – | 0.011 | – | – | – |
| Cc1cc(OCCC(C)(C)O)cc(C)c1-c1ccc(F)c2c1CC[C@H]2Nc1ccc([C@H]2C[C@@H]2C(=O)O)nc1 [Example 2, (1S,2S)-2-(5-{(R)-7-Fluoro-4-[4-(3-hydroxy-3-methyl-butoxy)-2,6-dimethyl-phenyl]-indan-1-ylamino}-pyridin-2-yl)-cyclopropanecarboxylic acid] | 20 | > 50 | 0.004 | – | 0.004 | 100 (≈ 193 µM) |
| Cc1cc(OCCC(C)(C)O)cc(C)c1-c1ccc(F)c2c1CC[C@H]2Nc1ccc([C@@H]2C[C@H]2C(=O)O)nc1 [Example 3, (1R,2R)-2-(5-{(R)-7-Fluoro-4-[4-(3-hydroxy-3-methyl-butoxy)-2,6-dimethyl-phenyl]-indan-1-ylamino}-pyridin-2-yl)-cyclopropanecarboxylic acid] | – | – | 0.107 | – | – | – |
| Cc1cc(OCCCS(C)(=O)=O)cc(C)c1-c1ccc(F)c2c1CC[C@H]2Nc1ccc([C@H]2C[C@@H]2C(=O)O)nc1 [Example 4, (1S,2S)-2-(5-{(R)-7-Fluoro-4-[4-(3-methanesulfonyl-propoxy)-2,6-dimethyl-phenyl]-indan-1-ylamino}-pyridin-2-yl)-cyclopropanecarboxylic acid] | > 50 | > 50 | 0.007 | – | 0.007 | 97 (≈ 176 µM) |
| Cc1cc(OCCC(C)(C)O)cc(C)c1-c1cccc2c1CC[C@H]2Nc1ccc([C@H]2C[C@@H]2C(=O)O)nc1 [Example 7, (1S,2S)-2-(5-{(R)-4-[4-(3-Hydroxy-3-methyl-butoxy)-2,6-dimethyl-phenyl]-indan-1-ylamino}-pyridin-2-yl)-cyclopropanecarboxylic acid] | > 50 | > 50 | 0.005 | – | – | 84 (≈ 168 µM) |
| COc1ccc(-c2cccc3c2CC[C@H]3Nc2ccc([C@H]3C[C@@H]3C(=O)O)nc2)cc1F [Example 8, (1S,2S)-2-{5-[(R)-4-(3-Fluoro-4-methoxy-phenyl)-indan-1-ylamino]-pyridin-2-yl}-cyclopropanecarboxylic acid] | > 50 | > 50 | 0.1 | – | – | 62 (≈ 148 µM) |
| Cc1nnc(-c2ccc(-c3cccc4c3CC[C@H]4Nc3ccc([C@H]4C[C@@H]4C(=O)O)nc3)cc2)o1 [Example 10, (1S,2S)-2-(5-{(R)-4-[4-(5-Methyl-[1,3,4]oxadiazol-2-yl)-phenyl]-indan-1-ylamino}-pyridin-2-yl)-cyclopropanecarboxylic acid] | – | – | 0.146 | – | – | – |
| Cc1cc(C(N)=O)cc(C)c1-c1ccc(F)c2c1CC[C@H]2Nc1ccc([C@H]2C[C@@H]2C(=O)O)nc1 [Example 11] | > 50 | > 50 | 0.03 | >120 | – | – |
| Cc1cc(CO)cc(C)c1-c1ccc(F)c2c1CC[C@H]2Nc1ccc([C@H]2C[C@@H]2C(=O)O)nc1 [Example 13] | 40 | > 50 | 0.025 | 105 | – | – |
| Cc1cc(OCC(=O)O)cc(C)c1-c1ccc(F)c2c1CC[C@H]2Nc1ccc([C@H]2C[C@@H]2C(=O)O)nc1 [Example 16] | > 50 | > 50 | 0.924 | 96 | – | – |
| Cc1cc(OCC(C)(C)C#N)cc(C)c1-c1ccc(F)c2c1CC[C@H]2Nc1ccc([C@H]2C[C@@H]2C(=O)O)nc1 [Example 17] | 19 | 36 | 0.01 | 64 | – | – |

More lines, in order of falling IC50 [1], values ahead:

| IC50 [1] [µM] | IC50 [2] [µM] | EC50 [3, 5] [µM] | Solubility at pH value 2.2 [4] [μg/mL] | EC50 [3, 6] [µM] | solubility at 24 h [4] [µg/mL] | SMILES |
| --- | --- | --- | --- | --- | --- | --- |
| 40 | > 50 | 0.012 | 103 | – | – | Cc1cc(O[C@H]2CCOC2)cc(C)c1-c1ccc(F)c2c1CC[C@H]2Nc1ccc([C@H]2C[C@@H]2C(=O)O)nc1 (mixture of isomers) [Example 33] |
| 32 | > 50 | 0.008 | 120 | – | – | Cc1cc(OCC2(C)COC2)cc(C)c1-c1ccc(F)c2c1CC[C@H]2Nc1ccc([C@H]2C[C@@H]2C(=O)O)nc1 [Example 15] |
| 30 | > 50 | 0.01 | 105 | – | – | Cc1cc(O[C@@H]2CCOC2)cc(C)c1-c1ccc(F)c2c1CC[C@H]2Nc1ccc([C@H]2C[C@@H]2C(=O)O)nc1 [Example 12] |
| 29 | > 50 | 0.003 | – | – | 68 (≈ 141 µM) | Cc1cc(-c2nnn(C)n2)cc(C)c1-c1cccc2c1CC[C@H]2Nc1ccc([C@H]2C[C@@H]2C(=O)O)nc1 [Example 6, (1S,2S)-2-(5-{(R)-4-[2,6-Dimethyl-4-(2-methyl-2H-tetrazol-5-yl)-phenyl]-indan-1-ylamino}-pyridin-2-yl)-cyclopropanecarboxylic acid] |
| 21 | > 50 | 0.005 | >130 | – | – | Cc1cc(-c2ccn(C)c(=O)n2)cc(C)c1-c1ccc(F)c2c1CC[C@H]2Nc1ccc([C@H]2C[C@@H]2C(=O)O)nc1 [Example 18] |
| 20 | > 50 | 0.024 | – | – | < 1 | COc1cnc(-c2ccc(-c3cccc4c3CC[C@H]4Nc3ccc([C@H]4C[C@@H]4C(=O)O)nc3)cc2)cn1 [Example 9, (1S,2S)-2-(5-{(R)-4-[4-(5-Methoxy-pyrazin-2-yl)-phenyl]-indan-1-ylamino}-pyridin-2-yl)-cyclopropanecarboxylic acid] |
| 20 | > 50 | 0.003 | – | – | – | Cc1cc(-c2nnn(C)n2)cc(C)c1-c1ccc(F)c2c1CC[C@H]2Nc1ccc([C@H]2C[C@@H]2C(=O)O)nc1 [Example 30] |
| 12 | 17 | – | – | 0.008 | – | Cc1cc(OCCCS(C)(=O)=O)cc(C)c1-c1ccc(F)c2c1CC[C@H]2Oc1ccc([C@H]2C[C@@H]2C(=O)O)nc1 [Example 11 in WO 2013/178575, reference compound] |
| 10 | 31 | – | – | – | < 1 | Cc1cc(C(=O)NCC(C)(C)O)cc(C)c1-c1ccc(F)c2c1CC[C@H]2Oc1ccc([C@H]2C[C@@H]2C(=O)O)cc1 [Example 15 in WO 2013/178575, reference compound] |
| 9 | 10 | – | – | – | < 1 | Cc1c(C#N)cccc1-c1ccc(F)c2c1CC[C@H]2Oc1ccc([C@H]2C[C@@H]2C(=O)O)cc1 [Example 54 in WO 2013/178575, reference compound] |
| 7 | 26 | 0.012 | 95 | – | – | Cc1cc(-c2ccnn2C)cc(C)c1-c1ccc(F)c2c1CC[C@H]2Nc1ccc([C@H]2C[C@@H]2C(=O)O)nc1 [Example 19] |
| 5 | 7 | – | – | – | – | Cc1cccc(C)c1-c1ccc(F)c2c1CC[C@H]2Oc1ccc(C2CC2C(=O)O)cc1 (some centres unmarked) [Example 33 in WO 2013/178575, reference compound] |
